Columns and labels:
[1] = ref [19]; cited from earlier work
MMP-9 = biological target: T1, MMP-9 (Homo sapiens, UniProt P14780); conditions: 37 °C; ref [15],[19]; cited from earlier work
T1 construct: Recombinant MMP-2 and MMP-9 catalytic domain were purchased from Sigma-Aldrich; purchased Sigma-Aldrich

MT1-MMP = biological target: MT1-MMP; set-up: method as in 2 sources, ref [19] = [19]; PMID 28394608; doi:10.1021/acs.jmedchem.7b00018; 19. Bhowmick M. Tokmina-Roszyk D. Onwuha-Ekpete L. Harmon K. Robichaud T. Fuerst R. Stawikowska R. Steffensen B. Roush W.R. Wong H. Second Generation Triple-Helical Peptide Transition State Analog Mat ||| ref [15],[19] = [15]; PMID 17672455; doi:10.1021/ja0715849; 15. Lauer-Fields J.L. Brew K. Whitehead J.K. Li S. Hammer R.P. Fields G.B. Triple-helical transition-state analogs: A new class of selective matrix metalloproteinase inhibitors J. Am. Chem. Soc. 2007 || [19]; PMID 28394608; doi:10.1021/acs.jmedchem.7b00018; 19. Bhowmick M. Tokmina-Roszyk D. Onwuha-Ekpete L. Harmon K. Robichaud T. Fuerst R. Stawikowska R. Steffensen B. Roush W.R. Wong H. Second Generation Triple-Helical Peptide Transition State Analog Mat; conditions: no or weak inhibition of MT1-MMP; ref [15],[19]; cited from earlier work
MMP-1 = biological target: MMP-1; set-up: method as in 2 sources, ref [19] = [19]; PMID 28394608; doi:10.1021/acs.jmedchem.7b00018; 19. Bhowmick M. Tokmina-Roszyk D. Onwuha-Ekpete L. Harmon K. Robichaud T. Fuerst R. Stawikowska R. Steffensen B. Roush W.R. Wong H. Second Generation Triple-Helical Peptide Transition State Analog Mat ||| ref [15],[19] = [15]; PMID 17672455; doi:10.1021/ja0715849; 15. Lauer-Fields J.L. Brew K. Whitehead J.K. Li S. Hammer R.P. Fields G.B. Triple-helical transition-state analogs: A new class of selective matrix metalloproteinase inhibitors J. Am. Chem. Soc. 2007 || [19]; PMID 28394608; doi:10.1021/acs.jmedchem.7b00018; 19. Bhowmick M. Tokmina-Roszyk D. Onwuha-Ekpete L. Harmon K. Robichaud T. Fuerst R. Stawikowska R. Steffensen B. Roush W.R. Wong H. Second Generation Triple-Helical Peptide Transition State Analog Mat; conditions: no or weak inhibition of MMP-1; ref [15],[19]; cited from earlier work
MMP-13 = MMP-13 (Homo sapiens, UniProt P45452); conditions: no or weak inhibition of MMP-13; ref [15],[19]; cited from earlier work
MMP-3 = biological target: MMP-3; set-up: method as in 2 sources, ref [19] = [19]; PMID 28394608; doi:10.1021/acs.jmedchem.7b00018; 19. Bhowmick M. Tokmina-Roszyk D. Onwuha-Ekpete L. Harmon K. Robichaud T. Fuerst R. Stawikowska R. Steffensen B. Roush W.R. Wong H. Second Generation Triple-Helical Peptide Transition State Analog Mat ||| ref [15],[19] = [15]; PMID 17672455; doi:10.1021/ja0715849; 15. Lauer-Fields J.L. Brew K. Whitehead J.K. Li S. Hammer R.P. Fields G.B. Triple-helical transition-state analogs: A new class of selective matrix metalloproteinase inhibitors J. Am. Chem. Soc. 2007 || [19]; PMID 28394608; doi:10.1021/acs.jmedchem.7b00018; 19. Bhowmick M. Tokmina-Roszyk D. Onwuha-Ekpete L. Harmon K. Robichaud T. Fuerst R. Stawikowska R. Steffensen B. Roush W.R. Wong H. Second Generation Triple-Helical Peptide Transition State Analog Mat; conditions: no or weak inhibition of MMP-3; ref [15],[19]; cited from earlier work
caspase-11 = test: Caspase enzyme assay (residual caspase-11 activity); assay type: biochemical, mouse
MMP-8 = biological target: T2, MMP-8 (Homo sapiens, UniProt P22894); set-up: method as in 2 sources, ref [19] = [19]; PMID 28394608; doi:10.1021/acs.jmedchem.7b00018; 19. Bhowmick M. Tokmina-Roszyk D. Onwuha-Ekpete L. Harmon K. Robichaud T. Fuerst R. Stawikowska R. Steffensen B. Roush W.R. Wong H. Second Generation Triple-Helical Peptide Transition State Analog Mat ||| ref [15],[19] = [15]; PMID 17672455; doi:10.1021/ja0715849; 15. Lauer-Fields J.L. Brew K. Whitehead J.K. Li S. Hammer R.P. Fields G.B. Triple-helical transition-state analogs: A new class of selective matrix metalloproteinase inhibitors J. Am. Chem. Soc. 2007 || [19]; PMID 28394608; doi:10.1021/acs.jmedchem.7b00018; 19. Bhowmick M. Tokmina-Roszyk D. Onwuha-Ekpete L. Harmon K. Robichaud T. Fuerst R. Stawikowska R. Steffensen B. Roush W.R. Wong H. Second Generation Triple-Helical Peptide Transition State Analog Mat; conditions: no or weak inhibition of MMP-8; ref [15],[19]; cited from earlier work
T2 construct: purchased R&D Systems

MMP-2 = biological target: T3, MMP-2 (Homo sapiens, UniProt P08253); conditions: 37 °C; ref [15],[19]; cited from earlier work
T3 construct: Recombinant MMP-2 and MMP-9 catalytic domain were purchased from Sigma-Aldrich; purchased Sigma-Aldrich
T3 sequence (P08253 110-660): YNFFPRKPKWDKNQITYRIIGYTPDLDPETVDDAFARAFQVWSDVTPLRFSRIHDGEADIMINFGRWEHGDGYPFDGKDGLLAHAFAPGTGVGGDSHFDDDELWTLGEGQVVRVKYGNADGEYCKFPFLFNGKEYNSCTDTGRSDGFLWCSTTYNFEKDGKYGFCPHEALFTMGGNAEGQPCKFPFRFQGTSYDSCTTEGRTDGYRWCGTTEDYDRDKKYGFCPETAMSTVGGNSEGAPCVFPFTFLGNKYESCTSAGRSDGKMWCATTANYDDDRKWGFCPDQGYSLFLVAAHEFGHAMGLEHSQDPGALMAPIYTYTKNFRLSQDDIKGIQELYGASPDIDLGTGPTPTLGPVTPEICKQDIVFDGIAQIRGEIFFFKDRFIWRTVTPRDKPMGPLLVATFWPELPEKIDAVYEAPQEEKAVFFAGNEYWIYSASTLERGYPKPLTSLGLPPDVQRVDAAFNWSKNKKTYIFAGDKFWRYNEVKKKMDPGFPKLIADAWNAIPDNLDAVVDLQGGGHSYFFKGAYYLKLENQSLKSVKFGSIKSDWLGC

T1 sequence (P14780 107-444 limits assumed, species assumed): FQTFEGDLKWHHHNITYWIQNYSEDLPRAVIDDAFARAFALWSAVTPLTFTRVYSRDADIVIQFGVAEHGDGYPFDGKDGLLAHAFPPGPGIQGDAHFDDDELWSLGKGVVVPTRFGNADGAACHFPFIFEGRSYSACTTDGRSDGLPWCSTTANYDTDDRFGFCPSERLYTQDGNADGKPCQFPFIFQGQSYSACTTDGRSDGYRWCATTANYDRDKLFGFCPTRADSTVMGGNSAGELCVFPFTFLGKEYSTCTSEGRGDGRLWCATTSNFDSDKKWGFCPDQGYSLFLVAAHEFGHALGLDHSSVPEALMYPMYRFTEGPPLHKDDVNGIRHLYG
T2 sequence (P22894 101-467): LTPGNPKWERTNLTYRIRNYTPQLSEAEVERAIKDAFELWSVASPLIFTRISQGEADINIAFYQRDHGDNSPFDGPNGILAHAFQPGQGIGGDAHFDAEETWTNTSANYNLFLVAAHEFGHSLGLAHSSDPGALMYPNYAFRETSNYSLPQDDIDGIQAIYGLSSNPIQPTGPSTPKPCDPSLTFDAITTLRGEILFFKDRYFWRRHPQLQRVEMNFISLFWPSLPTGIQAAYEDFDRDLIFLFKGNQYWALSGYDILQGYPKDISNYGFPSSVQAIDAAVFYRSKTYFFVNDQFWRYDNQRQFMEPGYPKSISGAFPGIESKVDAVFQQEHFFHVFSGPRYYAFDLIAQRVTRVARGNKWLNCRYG

| Substance | efficacy in animal model of multiple sclerosis [1] | Ki (MMP-9) [µM] | Ki (MT1-MMP) [µM] | Ki (MMP-1) [µM] | Ki (MMP-13) [µM] | Ki (MMP-3) [µM] | inhibition of caspase-11 activity at early time points (caspase-11; 5 μM inhibitor, 2 h inhibitor pre-incubation (Figure 2), stated to be similar to no pre-incubation) | change in extent of caspase-11 inhibition over time (caspase-11; 5 μM inhibitor, 2 h pre-incubation, 1 h monitoring, data not shown) | inhibition of caspase-11 activity at early time points (caspase-11; no inhibitor pre-incubation time, data not shown) | Ki (MMP-8) [µM] | Ki (MMP-2) [µM] | inhibition of caspase-11 activity (caspase-11; 5 μM inhibitor incubated with enzyme 2 h prior to substrate, 3 U/μL (1.08 μM) caspase-11, 250 μM acetyl-Trp-Glu-His-Asp-pNA, pH 6.5, 37 °C, absorbance 405 nm, result in words (up to 15 min)) |
| --- | --- | --- | --- | --- | --- | --- | --- | --- | --- | --- | --- | --- |
| (Gly-Pro-Hyp)4-Gly-mep-Flp-Gly-Pro-Pro-GlyΨ{PO2H-CH2}Val-Val-Gly-Glu-Gln-Gly-Glu-Gln-Gly-Pro-Pro-Gly-mep-Flp-(Gly-Pro-Hyp)4-NH2 | efficacious in an animal model of multiple sclerosis | 0.00098 | 10 to 50 | 10 to 50 | 10 to 50 | 10 to 50 | no inhibition to occur at early time points | did not increase after 1 h | no inhibition to occur at early time points | 10 to 50 | 0.00224 | – |
| Ac-LEVD-aldehyde (SMILES CC(=O)N[C@@H](CC(C)C)C(=O)N[C@@H](CCC(=O)O)C(=O)N[C@H](C(=O)N[C@H](C=O)CC(=O)O)C(C)C) [reference compound] | – | – | – | – | – | – | – | – | – | – | – | completely inhibit enzymatic activity |

Source: article PMC6930605, “Matrix Metalloproteinase Triple-Helical Peptide Inhibitors: Potential Cross-Reactivity with Caspase-11” (Molecules, 2019)
